Test results published in patent US20040040047A1 (priority 1998, published 2004).
pIC50: −log10 of the molar value.

What was measured:
conditional Fas = target: T1, conditional Fas (Homo sapiens, UniProt P62942, F37V); test: Luciferase survival assay, BPH-derived smooth muscle cells transfected with conditional Fas; format: cell-based; details: with or without AP1903, 24 hours
T1 construct: Fas cytoplasmic portion (same polypeptide); expressed in transfected cells; host or cells: JD and CR-2a (smooth muscle cell lines from BPH patients)
T1 sequence (P62942 2-108 F37V): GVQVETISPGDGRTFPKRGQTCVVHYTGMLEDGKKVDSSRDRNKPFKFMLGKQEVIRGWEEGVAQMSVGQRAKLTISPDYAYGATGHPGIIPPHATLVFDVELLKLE
T1 sequence (P25445 191-335 partner limits assumed): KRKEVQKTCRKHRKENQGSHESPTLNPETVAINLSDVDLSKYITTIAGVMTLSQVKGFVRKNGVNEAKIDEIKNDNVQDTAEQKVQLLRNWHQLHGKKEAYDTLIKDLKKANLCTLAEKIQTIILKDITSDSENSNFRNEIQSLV
Text: (§1) Conditional Fas, YAMA and a YAMA construct containing a single, inactivating point mutation were cotransfected with a luciferase reporter plasmid (pGL2) into JD and CR-2a cell lines. These are smooth muscle cell lines derived from prostate tissue samples taken from patients with BPH. […] Cells were then lysed and assayed for luciferase activity as a marker of cell survival.
(§2) It is worth noting that a conditional Fas-based treatment for BPH is not possible since the Fas construct was not effective in causing apoptosis in BPH derived cell lines. It is quite likely that Fas-based methods will be ineffective in many other cell types, thus severely limiting the utility of this approach.

Fv2-casp-3 [1] = target: T2, Fv2-casp-3 (Homo sapiens, UniProt P62942, F37V); test: Western blot of processing and degradation of Fv2-casp-3 in Jurkat cells; format: cell-based
T2 construct: caspase-3 (same polypeptide); expressed in transfected cells; host or cells: Jurkat TAg
T2 sequence (P62942 2-108 F37V): as the sequence (P62942 2-108 F37V) above
Description: Jurkat TAg cells were electroporated with 2 μg of plasmid, cultured 36 hours, and stimulated with drug for the indicated time period. Approximately 5×10^5 cells were lysed in 100 μl RIPA buffer (0.01M TrisHCl pH 8.0, 140 mM NaCl, 1% Triton X-100, 1 mM phenylmethylsulfonyl fluoride, 1% sodium deoxycholate, 0.1% SDS) on ice for 30 minutes. Cell debris were pelleted and supernatants were boiled in 1:1 Laemmli sample buffer (with 5% β-ME) for 5 minutes. […] Membranes were incubated with monoclonal anti-HA epitope antibody, HA.11 (BABCO) followed by polyclonal HRP-conjugated goat anti-mouse antibody (Bio-Rad). Bands were detected with SuperSignal-Chemiluminescent Substrate (Pierce).
Processing of caspase-3, and other caspases, ordinarily involves two or more cleavages after aspartic acid residues. To confirm that the CID-mediated diminution of reporter activity was caused by activation of the conditional caspases, the processing and degradation of conditional caspase-3 was directly examined. Jurkat cells were transfected 2 μg Fv2-casp-3 or Fv2-casp-3/S163. […] Following these incubations, cell extracts were analyzed by western blotting using monoclonal antibodies to an epitope tag (HA) placed at both ends of the construct.
The breakdown products of caspase-3 activation were not seen even though epitope tags were present at both ends of the protein. […] Therefore, homomultimerization of the caspases, caspase-1 and caspase-3, is sufficient for their activation.

inactivated YAMA = target: T3, inactivated YAMA (Homo sapiens, UniProt P42574+P62942, C163S/F37V); test: Luciferase survival assay, BPH-derived smooth muscle cells transfected with inactivated YAMA; format: cell-based; details: with or without AP1903, 24 hours
T3 construct: caspase-3 C163S (same polypeptide); expressed in transfected cells; host or cells: JD and CR-2a (smooth muscle cell lines from BPH patients)
Text: as §1, §2

conditional YAMA = target: T4, conditional YAMA (Homo sapiens, UniProt P62942, F37V); test: Luciferase survival assay, BPH-derived smooth muscle cells (JD, CR-2a) transfected with conditional YAMA; format: cell-based
T4 construct: caspase-3 / YAMA (same polypeptide); expressed in transfected cells; host or cells: JD and CR-2a (smooth muscle cell lines from BPH patients)
T4 sequence (P62942 2-108 F37V): as above
T4 sequence (P42574 2-277 partner limits assumed): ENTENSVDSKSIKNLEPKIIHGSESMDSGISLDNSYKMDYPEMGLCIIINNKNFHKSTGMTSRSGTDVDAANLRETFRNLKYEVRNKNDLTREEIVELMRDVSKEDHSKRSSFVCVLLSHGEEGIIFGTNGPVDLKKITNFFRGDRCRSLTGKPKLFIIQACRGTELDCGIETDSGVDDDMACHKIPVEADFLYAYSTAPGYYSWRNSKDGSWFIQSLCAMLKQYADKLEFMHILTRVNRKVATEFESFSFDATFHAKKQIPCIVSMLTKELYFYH
Text: as §1, §2

Fv2-casp-3/S163 = target: T5, Fv2-casp-3/S163 (Homo sapiens, UniProt P42574+P62942, C163S/F37V); test: SEAP reporter assay, Jurkat TAg cells transfected with inactive Fv2-casp-3/S163; format: cell-based; details: 100 nM AP1903, enzymatically inactive caspase-3
T5 construct: caspase-3 C163S (same polypeptide); expressed in transfected cells; host or cells: Jurkat TAg
Description: Jurkat TAg cells (10^7) in log phase growth were electroporated (950 μF, 250V; Gene Pulser II) with expression plasmid and 1-2 μg SRα-SEAP. After 24 hours, transformed cells were stimulated with CID or anti-Fas antibody (CH.11, Kamiya Biomedical). After an additional 20 hours, supernatants were assayed for SEAP activity as described previously (15). Units of SEAP activity are reported directly and as a percentage of activity relative to no stimulation within the same transfections (% Relative Activity).
In contrast to caspase-1 and Fas, conditional caspase-3 alleles are not apparently autotoxic (FIGS. 7-9). With reference to FIGS. 7 and 8, Jurkat TAg cells were transiently-transfected with: 2 μg Fv2-casp-3 (open squares), or 2 μg Fv2-casp-3/S163 (closed squares). With reference to FIG. 9, Jurkat TAg cells were transfected with: 2 μg Fpk3-casp-3/S163 (closed triangles), 2 μg Fpk3-casp-3 (open squares), or 2 μg Fpk3-Δ20casp-3 (closed squares). After 20 hours, transfected cells were treated and analyzed as before. Data is representative of at least three independent experiments performed in duplicate.

Fv2-casp-3 [2] = target: T2, Fv2-casp-3; test: SEAP reporter assay, Jurkat TAg cells transfected with Fv2-casp-3; format: cell-based; details: 2 μg Fv2-casp-3, Jurkat TAg, in the presence of AP1903
JD-2a cells = test: Fluorescent microscopy of JD-2a cells infected with Adv-Fv1-YAMA; format: cell-based, human; details: Adv-Fv1-YAMA MOI ~25, 50 nM AP1903 for 24 hours
Description: Replication deficient (ΔE1) adenoviral vectors expressing green flourescent protein and conditional Caspase 1 (ICE) or Caspase 3 (YAMA) were engineered. These vectors independently express green fluorescent protein so that infected cells are easily identified by their green color under fluorescent microscopy.
40,000 JD-2a cells per well were plated in 24-well plates and infected at a multiplicity-of-infection (MOI) of ˜25 with Adv-Fv1-YAMA, an adenoviral vector expressing CID-regulated YAMA. […] All of the cells incubated with virus and maintained in control media appeared green, and were clearly attached and viable, similar to non-fluorescent non-infected JD-2a cells (FIG. 47b).

RM-1 cells = details: single treatment with adenovirus expressing HSV-tk and ganciclovir; cited from earlier work
[3] = test system: tumor cell types expressing herpes virus tk; details: cited from earlier work
S-Fv3-Casp3 = target: T6, S-Fv3-Casp3 (Homo sapiens, UniProt P62942, F37V); test: SEAP reporter assay, Jurkat TAg cells, S-Fv3-Casp3; format: cell-based; details: construct containing three Fvs; read-out: IC50 (decrease in SEAP activity)
T6 construct: caspase-3 (same polypeptide); expressed in transfected cells; host or cells: Jurkat TAg
T6 sequence (P62942 2-108 F37V): as the sequence (P62942 2-108 F37V) above
T6 sequence (P42574 2-277 partner limits assumed): as the sequence (P42574 2-277 partner limits assumed) above
Description: (§3) Jurkat TAg cells (10^7) in log phase growth were electroporated (950 μF, 250 V) with expression plasmid and 2 μg SRα-SEAP. […] Units of SEAP activity are reported directly and as a percentage of activity relative to no stimulation (“% Relative SEAP activity”). All experiments were repeated at least three times and representative experiments performed with duplicate samples are shown.

S-Fv2-Casp1 = target: T7, S-Fv2-Casp1 (Homo sapiens, UniProt P62942, F37V); test: SEAP reporter assay, Jurkat TAg cells, S-Fv2-Casp1; format: cell-based; details: caspase-1 fused to two Fvs, no linker
T7 construct: caspase-1 (same polypeptide); expressed in transfected cells; host or cells: Jurkat TAg
T7 sequence (P62942 2-108 F37V): as the sequence (P62942 2-108 F37V) above
T7 sequence (P29466 2-404 partner limits assumed): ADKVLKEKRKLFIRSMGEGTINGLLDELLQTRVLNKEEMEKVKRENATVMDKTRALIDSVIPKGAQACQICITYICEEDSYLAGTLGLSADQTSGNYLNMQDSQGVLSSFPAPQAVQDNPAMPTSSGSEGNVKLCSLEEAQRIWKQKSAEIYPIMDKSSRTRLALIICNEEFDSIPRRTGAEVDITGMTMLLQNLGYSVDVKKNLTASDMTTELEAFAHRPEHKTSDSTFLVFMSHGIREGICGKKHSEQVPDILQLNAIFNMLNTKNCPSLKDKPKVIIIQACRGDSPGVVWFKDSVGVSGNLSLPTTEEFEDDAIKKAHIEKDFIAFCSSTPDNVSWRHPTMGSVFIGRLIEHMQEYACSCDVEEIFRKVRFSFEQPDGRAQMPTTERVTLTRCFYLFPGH
Description: as §3

FKBP12V36 (Fv) = FKBP12V36 (Fv) (Homo sapiens, UniProt P62942, F37V); test: CID binding to mutant FKBP12 (F36V, Fv); details: relative to AP1903
Chain of FKBP12V36 (Fv) (P62942 whole entry F37V): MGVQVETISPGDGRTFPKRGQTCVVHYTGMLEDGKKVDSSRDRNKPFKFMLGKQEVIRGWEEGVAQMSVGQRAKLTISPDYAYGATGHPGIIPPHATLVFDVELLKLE

CC[C@H](C(=O)N1CCCC[C@H]1C(=O)O[C@H](CCc1ccc(OC)c(OC)c1)c1cccc(OCC(=O)NCCNC(=O)COc2cccc([C@@H](CCc3ccc(OC)c(OC)c3)OC(=O)[C@@H]3CCCCN3C(=O)[C@@H](CC)c3cc(OC)c(OC)c(OC)c3)c2)c1)c1cc(OC)c(OC)c(OC)c1 [AP1903]
reduction in the percentage of surviving cells (conditional Fas): no significant reduction
time to full degradation of Fv2-casp-3 (Fv2-casp-3 [1]; 100 nM AP1903): four
time to complete degradation of full-length caspase-3 (Fv2-casp-3 [1]; 500 nM AP1903): ≤ 2 h
concentration sufficient to cause the processing and degradation of the majority of Fv2-casp-3 (Fv2-casp-3 [1]; treated for eight hours, half-log dilutions): 10 nM
reduction in the percentage of surviving cells (inactivated YAMA): no significant reduction
reduction in reporter activity (conditional YAMA; 100 μM AP1903 for 24 hours): 82%
luciferase activity (conditional YAMA; treated with 100 μM AP1903 for 24 hours, 668±67 without AP1903): 119±13
reduction of reporter activity (Fv2-casp-3/S163): could not reduce reporter activity
reduction in reporter activity (Fv2-casp-3 [2]): ≈ 65%
cells either dead or in the process of undergoing apoptosis (JD-2a cells): > 99%

Nc1nc(O)c2ncn(COC(CO)CO)c2n1 [ganciclovir]
reduction in lung colonization (RM-1 cells): 40%
dose up to which the cell line was essentially immune ([3]; ESB cell line): up to 1 μg/mL
time necessary to effect a substantial amount of cell death ([3]; high doses of ganciclovir): 6 to 22 days

FK1012
pIC50 (S-Fv3-Casp3): ~7.70
pIC50 (S-Fv2-Casp1): 9.00
lower affinity of FK1012 for Fv versus AP1903 (FKBP12V36 (Fv)): ten-fold
